Data taken from ChEMBL document CHEMBL1201862, “PubChem BioAssay data set” (2004).
Structures can show the parent of a compound that is named as a salt. Active and inactive are the calls of the source.

How the values were obtained:
Caspase-3 = target: T1, Caspase-3 (Homo sapiens, UniProt P42574); assay: activators of human procaspase-3 D3A mutant – biochemical, absorbance, PC-3 D3A mutant, counter-screen for dual procaspase-3/7 activator project, dose response (AID 504328)
T1 sequence (P42574 whole entry): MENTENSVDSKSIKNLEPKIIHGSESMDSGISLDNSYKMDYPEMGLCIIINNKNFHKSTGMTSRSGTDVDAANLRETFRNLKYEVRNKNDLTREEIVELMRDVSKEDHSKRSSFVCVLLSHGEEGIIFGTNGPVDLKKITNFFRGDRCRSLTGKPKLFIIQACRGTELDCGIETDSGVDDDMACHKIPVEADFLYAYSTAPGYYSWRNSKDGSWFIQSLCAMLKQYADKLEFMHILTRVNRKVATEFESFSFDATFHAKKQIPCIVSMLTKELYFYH

Caspase-7 = Caspase-7 (Homo sapiens, UniProt P55210); assay: potency of procaspase-7 enzyme activation – biochemical, absorbance, human, dual procaspase-3/-7 activator project, dose response (AID 504330)
[1] = target: NACHT, LRR and PYD domains-containing protein 1 (Homo sapiens, UniProt Q9C000); assay: NALP1 inhibitors in yeast, dose response, luminescent (AID 488860); type: functional
[2] = NIH-3T3 fibroblast cytotoxicity, dose response, cytotoxicity control, cell-based, fluorescence, Alamar Blue, secondary assay (AID 2327); type: functional;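 further: NIH-3T3 mouse fibroblasts cultured with fluconazole at 8 µg/mL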
[3] = fluconazole-exposed Candida albicans growth modulators – fluorescence, retest, confirmation (AID 2467); type: functional, cell-based
[4] = target: T2, Serine/threonine-protein phosphatase (Candida dubliniensis (strain CD36 / CBS 7987 / NCPF 3949 / NRRLY-17841) (Yeast), UniProt B9W6M3); assay: blockers of CaCl2-induced CDRE-lacZ signaling – S. cerevisiae, luminescence, secondary, dose response (AID 2388); type: functional, cell-based;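 further: yeast reporter cells carrying a calcineurin-responsive lacZ construct stimulated with calcium chloride; luminescent beta-galactosidase reporter signal in whole cells rather than isolated phosphatase activity; potency for inhibition where a drop in reporter signal means calcineurin blockade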
T2 sequence (B9W6M3 whole entry): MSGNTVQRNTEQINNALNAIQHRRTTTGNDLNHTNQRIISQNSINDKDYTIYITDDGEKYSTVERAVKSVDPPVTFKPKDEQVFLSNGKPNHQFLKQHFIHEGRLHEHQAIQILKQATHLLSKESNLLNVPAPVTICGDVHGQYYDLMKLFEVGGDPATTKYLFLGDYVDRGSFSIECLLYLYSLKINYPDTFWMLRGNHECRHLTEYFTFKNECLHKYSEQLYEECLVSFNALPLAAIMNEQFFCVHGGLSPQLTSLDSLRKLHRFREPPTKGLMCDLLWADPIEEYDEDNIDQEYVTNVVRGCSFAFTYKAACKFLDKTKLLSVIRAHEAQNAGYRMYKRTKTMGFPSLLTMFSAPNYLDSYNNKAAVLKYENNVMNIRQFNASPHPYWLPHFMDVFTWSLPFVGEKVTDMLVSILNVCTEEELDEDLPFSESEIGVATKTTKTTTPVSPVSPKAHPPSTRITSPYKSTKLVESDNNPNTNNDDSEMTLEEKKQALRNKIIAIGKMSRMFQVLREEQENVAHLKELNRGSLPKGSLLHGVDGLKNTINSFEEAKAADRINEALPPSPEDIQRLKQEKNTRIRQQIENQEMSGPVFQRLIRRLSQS

Saccharomyces cerevisiae = assay: S. cerevisiae Caspase-1/ASC signal blockers IC50, NALP1 inhibitor project selectivity test (AID 488863); type: functional, organism-based
[5] = target: ATP-dependent molecular chaperone HSP82 (Candida albicans (strain WO-1) (Yeast), UniProt C4YTQ8); assay: steroid-induced GRE reporter decrease in yeast – S. cerevisiae, luminescence, Hsp90 inhibitor project, dose response (AID 2400); type: functional, cell-based;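 further: beta-galactosidase luminescence from glucocorticoid response element reporter as proxy for Hsp90 function; inhibitor potency where signal loss means Hsp90 inhibition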
HEK293 [6] = assay: optical interference in Abeta FP readout, dose response, artefact control for IDE activator project, biochemical, fluorescence polarization (AID 588442); type: functional, cell-based; details: Homo sapiens
[7] = target: Aryl hydrocarbon receptor (Homo sapiens, UniProt P35869); details: Potency;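 further: confirmatory quantitative high-throughput screen measuring activation of the AhR signaling pathway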
Protein S100-A4 = Protein S100-A4 (Homo sapiens, UniProt P26447); assay: human S100A4 peptide interaction inhibition curves – biochemical, fluorescence polarization, cherry-picked hits, dose response (AID 687001); type: functional
HeLa = assay: viability loss in HeLa cells – cell-based, 24 h, cherry-picked samples, cytotoxicity control, dose response (AID 504726); type: functional; details: Homo sapiens;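 further: potency for cytotoxicity as loss of luminescence signal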
Nonstructural protein 1 = Nonstructural protein 1 (Influenza A virus, UniProt Q194T2); type: functional, Influenza A virus (A/California/07/2009(H1N1))
Insulin-degrading enzyme [8] = target: T3, Insulin-degrading enzyme (Homo sapiens, UniProt P14735); assay: cellular IDE activation of Abeta substrate cleavage – fluorescence polarization, HEK cells, dose response (AID 588439); type: functional, cell-based
T3 sequence (P14735 whole entry): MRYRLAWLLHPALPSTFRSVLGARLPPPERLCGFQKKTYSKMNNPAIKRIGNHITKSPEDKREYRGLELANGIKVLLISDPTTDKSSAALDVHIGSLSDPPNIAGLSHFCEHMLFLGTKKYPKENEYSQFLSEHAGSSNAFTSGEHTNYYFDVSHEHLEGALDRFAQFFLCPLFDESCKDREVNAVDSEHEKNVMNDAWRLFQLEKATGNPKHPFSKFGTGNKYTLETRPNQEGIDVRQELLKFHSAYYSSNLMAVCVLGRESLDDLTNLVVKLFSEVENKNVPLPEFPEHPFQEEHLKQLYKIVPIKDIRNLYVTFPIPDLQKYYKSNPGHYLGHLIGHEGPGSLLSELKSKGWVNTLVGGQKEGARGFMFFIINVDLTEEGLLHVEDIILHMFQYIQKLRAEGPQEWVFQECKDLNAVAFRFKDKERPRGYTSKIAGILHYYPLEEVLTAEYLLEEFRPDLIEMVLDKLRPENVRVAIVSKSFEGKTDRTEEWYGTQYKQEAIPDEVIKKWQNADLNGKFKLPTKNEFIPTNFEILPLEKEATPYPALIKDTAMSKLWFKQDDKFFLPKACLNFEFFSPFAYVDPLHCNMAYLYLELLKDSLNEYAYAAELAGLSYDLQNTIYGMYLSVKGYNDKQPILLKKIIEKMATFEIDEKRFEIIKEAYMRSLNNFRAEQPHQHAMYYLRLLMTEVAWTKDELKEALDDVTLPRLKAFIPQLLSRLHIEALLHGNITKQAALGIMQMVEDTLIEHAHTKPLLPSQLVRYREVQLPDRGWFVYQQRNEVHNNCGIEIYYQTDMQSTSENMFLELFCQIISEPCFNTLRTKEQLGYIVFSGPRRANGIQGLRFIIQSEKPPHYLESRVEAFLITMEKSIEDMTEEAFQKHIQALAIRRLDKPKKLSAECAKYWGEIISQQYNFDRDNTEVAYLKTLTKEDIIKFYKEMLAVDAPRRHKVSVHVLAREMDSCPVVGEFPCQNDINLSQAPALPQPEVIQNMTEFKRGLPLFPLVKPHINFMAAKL

ORF 73 = ORF 73 (Human herpesvirus 8, UniProt O40947); assay: KSHV LANA DNA-binding disruption – biochemical, fluorescence polarization, cherry-picked samples, dose response (AID 504725); parameters: species or system Human gammaherpesvirus 8;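 further: fluorescence polarization of a labeled DNA duplex reporting LANA DNA binding; potency is for inhibitors that block LANA binding to the DNA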
Paired box protein Pax-8 = Paired box protein Pax-8 (Homo sapiens, UniProt Q06710); assay: PAX8 transcriptional activity inhibition in RMG-I – RMG-I cells, luciferase, cherry-pick, dose response (AID 687027); type: functional, cell-based;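 further: luciferase reporter driven by Pax8 target thyroperoxidase promoter measured by SteadyGlo luminescence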
14-3-3 protein gamma = 14-3-3 protein gamma (Homo sapiens, UniProt P61981); assay: modulators of 14-3-3 gamma client binding – dose response (AID 711); type: functional
fMet-Leu-Phe receptor = target: T4, fMet-Leu-Phe receptor (Homo sapiens, UniProt P21462); assay: formyl peptide receptor binders – dose response (AID 519); type: functional
T4 sequence (P21462 whole entry): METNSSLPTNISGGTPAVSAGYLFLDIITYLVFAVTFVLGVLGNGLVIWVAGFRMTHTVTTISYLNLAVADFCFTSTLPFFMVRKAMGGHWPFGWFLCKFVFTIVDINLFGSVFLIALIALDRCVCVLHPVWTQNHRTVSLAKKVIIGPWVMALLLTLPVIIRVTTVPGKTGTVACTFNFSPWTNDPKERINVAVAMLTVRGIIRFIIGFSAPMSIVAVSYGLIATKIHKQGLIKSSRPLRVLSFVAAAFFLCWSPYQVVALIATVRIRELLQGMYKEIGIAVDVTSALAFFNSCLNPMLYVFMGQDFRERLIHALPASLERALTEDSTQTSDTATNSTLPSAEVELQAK

Insulin-degrading enzyme [9] = target: T3, Insulin-degrading enzyme; assay: recombinant IDE activation, cell-free – biochemical, fluorescence polarization, counter-screen for IDE activator project, dose response (AID 588681)
HEK293 [10] = assay: membrane integrity loss in HEK cells – cell-based, fluorescence, cytotoxicity control for IDE activator project, dose response (AID 588440); type: functional; details: Homo sapiens;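 further: cytotoxicity by LDH release measuring loss of membrane integrity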
[11] = target: T5, Alkaline phosphatase, tissue-nonspecific isozyme (Homo sapiens, UniProt P05186); assay: activation of tissue-nonspecific alkaline phosphatase – biochemical, TNAP isozyme, human IAP uHTS hits, selectivity assay for human IAP activator project, dose response (AID 488886); type: functional;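 further: potency of compounds raising TNAP activity as a selectivity check on IAP activators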
T5 sequence (P05186 whole entry): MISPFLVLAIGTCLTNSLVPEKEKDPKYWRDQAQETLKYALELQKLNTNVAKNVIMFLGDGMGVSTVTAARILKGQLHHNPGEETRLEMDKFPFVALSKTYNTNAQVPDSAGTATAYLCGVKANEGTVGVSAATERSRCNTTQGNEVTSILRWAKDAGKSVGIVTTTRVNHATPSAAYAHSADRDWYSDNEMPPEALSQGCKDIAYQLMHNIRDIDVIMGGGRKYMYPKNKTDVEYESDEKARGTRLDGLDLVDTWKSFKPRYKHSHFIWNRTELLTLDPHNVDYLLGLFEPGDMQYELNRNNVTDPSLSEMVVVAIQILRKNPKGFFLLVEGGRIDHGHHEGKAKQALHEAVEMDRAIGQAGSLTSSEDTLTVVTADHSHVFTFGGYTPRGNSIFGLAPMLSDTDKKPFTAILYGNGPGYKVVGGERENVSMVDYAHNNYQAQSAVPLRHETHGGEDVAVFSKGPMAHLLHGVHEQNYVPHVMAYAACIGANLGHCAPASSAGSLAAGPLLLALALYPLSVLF

[12] = target: T6, Intestinal-type alkaline phosphatase (Homo sapiens, UniProt P09923); assay: activation of human intestinal alkaline phosphatase – biochemical, luminescent, uHTS hits, set 2, dose response (AID 488817); type: functional;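 further: potency of activators that raise enzyme activity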
[13] = target: T6, Intestinal-type alkaline phosphatase; assay: human intestinal alkaline phosphatase activators, dose response, biochemical, luminescence, uHTS hits (AID 463120); type: functional
[14] = test system: Streptococcus sp. 'group A'; assay: Streptococcus pyogenes SK(-)GAS viability under kanamycin – luminescence, BacTiterGlo, confirmation, counter-screen for streptokinase expression inhibitor project, dose response (AID 1900); type: functional, organism-based
Streptococcus = assay: GAS UMAA2166 growth inhibition – luminescence, BacTiterGlo, counter-screen for streptokinase expression inhibitor project, dose response (AID 1915); type: functional, organism-based;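 further: potency for reduction of bacterial viability or growth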
[15] = target: Intestinal-type alkaline phosphatase (Mus musculus, UniProt P24822); assay: PubChem AID 488875; type: functional
[16] = target: NACHT, LRR and PYD domains-containing protein 3 (Homo sapiens, UniProt Q96P20); assay: NALP3 inhibitors in yeast, dose response, luminescent (AID 488799); type: functional
NACHT, LRR and PYD domains-containing protein 3, sequence (Q96P20 whole entry, the tested form may be a part): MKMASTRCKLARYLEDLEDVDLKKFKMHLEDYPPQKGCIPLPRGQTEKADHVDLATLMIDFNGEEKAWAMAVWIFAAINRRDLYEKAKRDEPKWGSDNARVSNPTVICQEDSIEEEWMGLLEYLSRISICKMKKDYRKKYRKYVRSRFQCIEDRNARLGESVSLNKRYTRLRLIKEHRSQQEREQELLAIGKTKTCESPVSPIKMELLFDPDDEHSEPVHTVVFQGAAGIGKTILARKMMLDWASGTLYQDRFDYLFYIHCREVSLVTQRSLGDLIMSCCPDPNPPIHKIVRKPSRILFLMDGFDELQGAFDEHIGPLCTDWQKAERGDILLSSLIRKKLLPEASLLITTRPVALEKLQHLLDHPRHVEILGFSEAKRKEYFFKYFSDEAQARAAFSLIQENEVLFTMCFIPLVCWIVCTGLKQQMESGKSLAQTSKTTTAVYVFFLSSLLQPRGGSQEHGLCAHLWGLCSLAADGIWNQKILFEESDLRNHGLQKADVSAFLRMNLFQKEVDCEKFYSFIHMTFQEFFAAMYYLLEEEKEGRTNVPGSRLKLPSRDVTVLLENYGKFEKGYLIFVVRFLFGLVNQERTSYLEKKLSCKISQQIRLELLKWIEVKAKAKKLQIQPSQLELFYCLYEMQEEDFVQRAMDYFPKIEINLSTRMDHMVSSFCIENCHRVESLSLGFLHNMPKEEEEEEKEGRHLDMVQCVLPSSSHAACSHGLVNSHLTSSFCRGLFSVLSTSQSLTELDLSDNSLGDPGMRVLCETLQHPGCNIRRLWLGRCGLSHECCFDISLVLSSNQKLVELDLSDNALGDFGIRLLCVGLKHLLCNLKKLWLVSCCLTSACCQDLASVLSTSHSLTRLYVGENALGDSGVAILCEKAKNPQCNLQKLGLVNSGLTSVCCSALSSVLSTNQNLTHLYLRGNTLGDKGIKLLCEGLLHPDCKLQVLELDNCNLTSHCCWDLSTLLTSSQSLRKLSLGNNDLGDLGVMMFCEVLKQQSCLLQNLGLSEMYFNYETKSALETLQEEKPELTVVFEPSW

T6 sequence (P09923 whole entry): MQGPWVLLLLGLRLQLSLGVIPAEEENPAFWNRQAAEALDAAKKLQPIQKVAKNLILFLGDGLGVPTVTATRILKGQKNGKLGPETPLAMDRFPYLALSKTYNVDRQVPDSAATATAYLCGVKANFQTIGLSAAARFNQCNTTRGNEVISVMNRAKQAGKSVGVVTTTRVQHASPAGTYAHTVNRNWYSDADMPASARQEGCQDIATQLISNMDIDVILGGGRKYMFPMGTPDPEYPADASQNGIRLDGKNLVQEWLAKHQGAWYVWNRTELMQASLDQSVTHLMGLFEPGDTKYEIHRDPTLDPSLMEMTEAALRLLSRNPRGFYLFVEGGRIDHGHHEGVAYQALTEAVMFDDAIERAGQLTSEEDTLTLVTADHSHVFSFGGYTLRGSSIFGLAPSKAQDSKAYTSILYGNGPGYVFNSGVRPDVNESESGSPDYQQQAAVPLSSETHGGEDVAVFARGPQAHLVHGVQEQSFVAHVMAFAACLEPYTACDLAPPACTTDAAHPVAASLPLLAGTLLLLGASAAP
Nonstructural protein 1, sequence (Q194T2 whole entry): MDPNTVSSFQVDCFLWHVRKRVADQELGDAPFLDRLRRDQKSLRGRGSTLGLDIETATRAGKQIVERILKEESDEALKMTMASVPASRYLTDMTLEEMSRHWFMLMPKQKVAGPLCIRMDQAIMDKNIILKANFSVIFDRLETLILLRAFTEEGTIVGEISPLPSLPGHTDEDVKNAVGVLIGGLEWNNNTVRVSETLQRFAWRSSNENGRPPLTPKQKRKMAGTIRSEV
ORF 73, sequence (O40947 whole entry): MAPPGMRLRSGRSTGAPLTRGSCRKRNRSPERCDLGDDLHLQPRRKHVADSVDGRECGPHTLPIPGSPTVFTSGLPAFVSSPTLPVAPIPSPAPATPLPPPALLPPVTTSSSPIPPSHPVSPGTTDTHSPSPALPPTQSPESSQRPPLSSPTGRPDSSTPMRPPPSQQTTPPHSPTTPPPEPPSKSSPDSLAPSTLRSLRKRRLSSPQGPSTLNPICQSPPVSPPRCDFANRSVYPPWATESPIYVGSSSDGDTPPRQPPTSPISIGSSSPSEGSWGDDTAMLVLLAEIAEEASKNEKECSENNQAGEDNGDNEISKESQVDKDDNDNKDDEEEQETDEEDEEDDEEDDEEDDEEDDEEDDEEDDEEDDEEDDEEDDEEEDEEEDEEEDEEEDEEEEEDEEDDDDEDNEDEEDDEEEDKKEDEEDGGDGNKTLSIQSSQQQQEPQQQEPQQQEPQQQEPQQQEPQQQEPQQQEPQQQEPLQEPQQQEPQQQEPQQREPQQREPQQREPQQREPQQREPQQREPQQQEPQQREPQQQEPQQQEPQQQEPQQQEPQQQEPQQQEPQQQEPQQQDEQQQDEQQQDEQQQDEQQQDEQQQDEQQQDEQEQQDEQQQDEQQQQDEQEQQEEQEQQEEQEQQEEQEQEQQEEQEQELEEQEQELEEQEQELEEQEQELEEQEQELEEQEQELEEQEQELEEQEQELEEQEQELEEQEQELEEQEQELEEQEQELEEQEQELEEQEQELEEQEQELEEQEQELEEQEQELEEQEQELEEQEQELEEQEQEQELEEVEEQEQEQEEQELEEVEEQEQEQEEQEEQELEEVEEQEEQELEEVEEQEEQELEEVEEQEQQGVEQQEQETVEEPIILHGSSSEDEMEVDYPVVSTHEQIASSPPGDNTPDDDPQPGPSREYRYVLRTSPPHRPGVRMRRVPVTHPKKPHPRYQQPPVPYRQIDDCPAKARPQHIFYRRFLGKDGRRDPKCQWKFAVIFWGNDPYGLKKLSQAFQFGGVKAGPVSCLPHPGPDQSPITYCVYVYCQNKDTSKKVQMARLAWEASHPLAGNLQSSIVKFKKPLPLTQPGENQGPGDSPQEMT
14-3-3 protein gamma, sequence (P61981 whole entry): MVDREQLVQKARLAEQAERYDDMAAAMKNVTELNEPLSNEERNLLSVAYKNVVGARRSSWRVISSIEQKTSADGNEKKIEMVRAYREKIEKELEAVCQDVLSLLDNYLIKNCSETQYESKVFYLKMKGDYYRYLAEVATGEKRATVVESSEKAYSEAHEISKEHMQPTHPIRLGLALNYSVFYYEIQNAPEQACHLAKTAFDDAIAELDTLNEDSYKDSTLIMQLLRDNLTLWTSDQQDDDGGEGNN
Aryl hydrocarbon receptor, sequence (P35869 whole entry): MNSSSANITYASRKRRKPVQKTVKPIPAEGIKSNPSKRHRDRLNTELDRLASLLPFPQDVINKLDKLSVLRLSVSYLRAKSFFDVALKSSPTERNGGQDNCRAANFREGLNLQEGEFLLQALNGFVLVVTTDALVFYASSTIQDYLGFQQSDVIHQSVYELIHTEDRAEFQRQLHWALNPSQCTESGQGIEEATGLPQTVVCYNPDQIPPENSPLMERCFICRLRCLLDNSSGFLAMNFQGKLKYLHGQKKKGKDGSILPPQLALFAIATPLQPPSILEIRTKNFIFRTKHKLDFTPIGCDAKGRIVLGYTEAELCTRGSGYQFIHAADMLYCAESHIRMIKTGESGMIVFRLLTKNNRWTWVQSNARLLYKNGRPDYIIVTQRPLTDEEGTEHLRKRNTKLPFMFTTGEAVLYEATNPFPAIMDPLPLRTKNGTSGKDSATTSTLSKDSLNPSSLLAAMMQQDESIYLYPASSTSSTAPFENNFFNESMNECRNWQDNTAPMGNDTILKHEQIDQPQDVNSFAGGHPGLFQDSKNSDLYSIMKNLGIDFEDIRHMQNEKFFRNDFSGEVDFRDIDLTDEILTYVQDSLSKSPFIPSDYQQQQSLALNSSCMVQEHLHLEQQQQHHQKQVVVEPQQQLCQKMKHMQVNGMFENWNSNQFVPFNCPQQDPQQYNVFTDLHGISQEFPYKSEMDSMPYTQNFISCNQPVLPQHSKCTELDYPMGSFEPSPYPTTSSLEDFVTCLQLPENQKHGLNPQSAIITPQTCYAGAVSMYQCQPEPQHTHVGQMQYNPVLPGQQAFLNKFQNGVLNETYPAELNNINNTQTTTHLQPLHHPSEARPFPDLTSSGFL
Paired box protein Pax-8, sequence (Q06710 whole entry): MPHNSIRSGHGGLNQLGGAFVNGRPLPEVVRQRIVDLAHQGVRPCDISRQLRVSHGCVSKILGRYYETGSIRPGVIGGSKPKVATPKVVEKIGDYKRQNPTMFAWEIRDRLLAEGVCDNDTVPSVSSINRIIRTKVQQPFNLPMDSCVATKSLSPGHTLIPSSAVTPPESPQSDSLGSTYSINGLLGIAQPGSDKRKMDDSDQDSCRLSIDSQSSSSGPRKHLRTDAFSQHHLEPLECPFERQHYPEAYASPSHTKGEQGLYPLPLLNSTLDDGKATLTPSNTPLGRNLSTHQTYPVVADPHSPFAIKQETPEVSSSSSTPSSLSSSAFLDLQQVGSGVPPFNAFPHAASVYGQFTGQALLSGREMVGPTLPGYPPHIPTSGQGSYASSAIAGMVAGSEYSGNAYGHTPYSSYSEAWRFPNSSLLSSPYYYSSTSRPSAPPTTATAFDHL
Protein S100-A4, sequence (P26447 whole entry): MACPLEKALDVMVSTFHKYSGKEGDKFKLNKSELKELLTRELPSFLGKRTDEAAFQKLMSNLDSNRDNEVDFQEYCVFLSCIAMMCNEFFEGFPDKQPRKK

Structure (SMILES): COc1ccc2c(c1OC)C(=O)OC2CC(=O)c1ccc(N(C)C)cc1 (stereo not drawn)
- EC50 (Caspase-3): > 85.3 µM (inactive)
- EC50 (Caspase-7): > 85.3 µM (inactive)

Structure (SMILES): Cc1cc2ccccn2c1C(C[N+](=O)[O-])c1c(F)cccc1Cl (stereo not drawn)
- IC50 [1]: 7.92 µM (active)
- EC50 [2]: > 160 µM (inactive)
- EC50 [3]: 0.421 µM (active)
- EC50 [4]: 45.4 µM (active)
- IC50 (Saccharomyces cerevisiae): 6.44 µM (active)
- EC50 [5]: 4.47 µM (active)

Structure (SMILES): COc1cccc2c1C(=O)c1c(O)c3c(c(O)c1C2=O)C[C@@](O)(C(C)=O)C[C@@H]3O[C@H]1C[C@H](N)[C@H](O)[C@H](C)O1 [DAUNORUBICIN HYDROCHLORIDE]
- EC50 (HEK293 [6]): > 54.7 µM (inactive)
- AC50 [7]: 12.6 µM (inconclusive)
- AC50 (Protein S100-A4): 0.235 µM (active)
- AC50 (HeLa): 1.73 µM (active)
- IC50 (Nonstructural protein 1): 32.7 µM (active)
- EC50 (Insulin-degrading enzyme [8]): > 54.7 µM (inactive)
- AC50 (ORF 73): 2.36 µM (active)
- AC50 (Paired box protein Pax-8): 1.55 µM (active)
- IC50 (14-3-3 protein gamma): < 0.781 µM (active)
- Ki (fMet-Leu-Phe receptor): > 66.7 µM (inactive)
- EC50 (Insulin-degrading enzyme [9]): > 54.7 µM (inactive)
- IC50 (HEK293 [10]): 17.7 µM (inactive)

Structure (SMILES): O=C(NC(=S)NNC(=O)c1ccccc1O)c1ccc(F)cc1
- EC50 [11]: 12.4 µM (active)
- EC50 [12]: 12.2 µM (active)
- IC50 (Nonstructural protein 1): 12.2 µM (active)
- EC50 [13]: 8.25 µM (active)
- EC50 [14]: 3.21 µM (active)
- EC50 (Streptococcus): 7.74 µM (active)
- EC50 [15]: > 100 µM (inactive)
- IC50 [16]: 7.94 µM (active)
